The subject of one series is DU145 (prostate cancer). The series can be described thus: Effect on tumor cell lines, viable cell count by trypan blue exclusion (Latham et al.): DU145. The series is classed as cell-based. The settings on record: DU145 prostate cancer cells, viable cell count 96 hours after treatment.
Series [1] concerns K562 (chronic myelogenous leukaemia). The experiment in a line: Effect on tumor cell lines, viable cell count by trypan blue exclusion (Latham et al.): K562. The series is classed as cell-based. The settings on record: K562 chronic myelogenous leukaemia cells, viable cell count 96 hours after treatment.

One may read the IC50 as the midpoint of a concentration-inhibition curve. The term melting point denotes the temperature of the solid-liquid transition.

With `COc1ccc(NS(=O)(=O)/C(C#N)=C/c2c(OC)cc(OC)cc2OC)cc1` [Example 279], the melting point was in the range of 151 to 154 °C. The IC50 in the series with DU145 (prostate cancer) was 25 to 50 µM. Besides, in series [1], the IC50 was 10 to 25 µM.

In turn, `COc1ccc(NS(=O)(=O)/C(C#N)=C/c2ccc(Cl)cc2)cc1` [Example 290] registered a melting point of 95 to 96 °C. The same molecule registered a concentration for half-maximal inhibition (IC50) in the series with DU145 (prostate cancer) (Homo sapiens, DU-145, 96 h) of 50 to 100 µM. In series [1] (Homo sapiens, K562, 96 h), this molecule showed an IC50 of 25 to 50 µM.

As for `Cc1ccc(NS(=O)(=O)/C(C#N)=C/c2ccc(O)cc2)c(C)c1` [Example 271], the melting point is 152 to 154 °C. The same molecule gave an IC50 in the series with DU145 (prostate cancer) (Homo sapiens, DU-145, 96 h) greater than 100 µM. Further, the IC50 in series [1] (Homo sapiens, K562, 96 h) is greater than 100 µM.

In turn, `Cc1ccc(C)c(/C=C(\C#N)S(=O)(=O)Cc2ccc(F)cc2)c1` [Example 90] registered a melting point of 122 to 130 °C. Further, the IC50 in the series with DU145 (prostate cancer) (Homo sapiens, DU-145, 96 h) is greater than 100 µM. For the same molecule, in series [1] (Homo sapiens, K562, 96 h), the IC50 was in the range of 50 to 100 µM.

For `Cc1ccc(C)c(/C=C(\C#N)S(=O)(=O)Cc2ccc(Cl)cc2)c1` [Example 40], the melting point lay within 123 to 126 °C. In the series with DU145 (prostate cancer) (Homo sapiens, DU-145, 96 h), the IC50 was 25 to 50 µM. The molecule further displayed an IC50 in series [1] (Homo sapiens, K562, 96 h) of 1 to 10 µM.

With `COc1cc(/C=C(\C#N)S(=O)(=O)Nc2ccc(C)cc2C)cc(OC)c1OC` [Example 268], the melting point lay in the range of 178 to 180 °C. The molecule also gave an IC50 in the series with DU145 (prostate cancer) (Homo sapiens, DU-145, 96 h) greater than 100 µM. Besides, the IC50 in series [1] (Homo sapiens, K562, 96 h) fell in the range of 50 to 100 µM.

In turn, `COc1ccc(/C=C(\C#N)S(=O)(=O)Cc2ccccc2)cc1OC` [Example 133] came in with a melting point of 170 to 174 °C. The IC50 in the series with DU145 (prostate cancer) (Homo sapiens, DU-145, 96 h) was greater than 100 µM. Besides, the IC50 in series [1] (Homo sapiens, K562, 96 h) is 50 to 100 µM.

Take `N#C/C(=C\c1ccccc1OCc1ccccc1)S(=O)(=O)Cc1ccccc1` [Example 137]: the melting point was in the range of 93 to 97 °C. In addition, the IC50 with DU145 (prostate cancer) (Homo sapiens, DU-145, 96 h) was greater than 100 µM. In addition, the 50% inhibitory concentration (IC50) in series [1] (Homo sapiens, K562, 96 h) fell in the range of 50 to 100 µM.

The molecule `N#C/C(=C\c1ccoc1)S(=O)(=O)Cc1cccc(Br)c1` [Example 115] returned a melting point of 128 to 132 °C. The molecule further yielded an IC50 in the series on DU145 (prostate cancer) (Homo sapiens, DU-145, 96 h) greater than 100 µM. In addition, in series [1] (Homo sapiens, K562, 96 h), the IC50 is greater than 100 µM.

Consider `N#C/C(=C\c1cccc(O)c1)S(=O)(=O)Cc1cccc(Br)c1` [Example 117], for which the melting point was 160 to 165 °C. In the series on DU145 (prostate cancer) (Homo sapiens, DU-145, 96 h), this molecule came in with an IC50 greater than 100 µM. This molecule returned an IC50 in series [1] (Homo sapiens, K562, 96 h) greater than 100 µM.

Molecule `Cc1ccc(NS(=O)(=O)/C(C#N)=C/c2c[nH]c3ccc(Br)cc23)c(C)c1` [Example 269] showed a melting point of 231 to 235 °C. This molecule came in with an IC50 in the series with DU145 (prostate cancer) (Homo sapiens, DU-145, 96 h) of 1 to 10 µM. Moreover, the IC50 in series [1] (Homo sapiens, K562, 96 h) fell in the range of 1 to 10 µM.

In turn, `COc1cc(/C=C(\C#N)S(=O)(=O)Cc2ccccc2)cc(OC)c1` [Example 134] yielded a melting point of 152 to 156 °C. In the series on DU145 (prostate cancer) (Homo sapiens, DU-145, 96 h), this molecule gave an IC50 of 50 to 100 µM. Besides, the half-maximal inhibitory concentration (IC50) in series [1] (Homo sapiens, K562, 96 h) lay in the range of 10 to 25 µM.

Molecule `N#C/C(=C\c1ccccc1O)S(=O)(=O)Cc1ccccc1` [Example 125] displayed a melting point of 135 to 138 °C. The same molecule displayed an IC50 in the series on DU145 (prostate cancer) (Homo sapiens, DU-145, 96 h) of 50 to 100 µM. The IC50 in series [1] (Homo sapiens, K562, 96 h) is greater than 100 µM.

For `Cc1ccc(NS(=O)(=O)/C(C#N)=C/c2ccc(Cl)cc2)c(C)c1` [Example 267], the melting point is 158 to 161 °C. Further, the IC50 in the series on DU145 (prostate cancer) (Homo sapiens, DU-145, 96 h) is 50 to 100 µM. In addition, the IC50 in series [1] (Homo sapiens, K562, 96 h) was in the range of 50 to 100 µM.

For the molecule `COc1ccc(NS(=O)(=O)/C(C#N)=C/c2c(F)c(F)c(F)c(F)c2F)cc1OS(=O)(=O)c1ccc(C)cc1` [Example 194, (E)-2-[(4-methoxy-3-(4-methylphenylsulfonyloxy)phenyl)sulfamoyl]-3-(2,3,4,5,6-pentafluorophenyl)acrylonitrile], the melting point was 112 to 114 °C. Also, in the series with DU145 (prostate cancer) (Homo sapiens, DU-145, 96 h), the IC50 was 1 to 10 µM. This molecule also displayed an IC50 in series [1] (Homo sapiens, K562, 96 h) of 1 to 10 µM.

For `N#C/C(=C\c1ccc(Cl)cc1)S(=O)(=O)Cc1ccc(F)cc1` [Example 89], the melting point lay in the range of 150 to 155 °C. In the series on DU145 (prostate cancer) (Homo sapiens, DU-145, 96 h), this molecule gave an IC50 of 50 to 100 µM. For the same molecule, in series [1] (Homo sapiens, K562, 96 h), the IC50 lay in the range of 50 to 100 µM.

`N#C/C(=C\c1ccc(F)cc1F)S(=O)(=O)Cc1ccccc1` [Example 142] showed a melting point of 133 to 135 °C. Also, in the series with DU145 (prostate cancer) (Homo sapiens, DU-145, 96 h), the IC50 was greater than 100 µM. Besides, the IC50 in series [1] (Homo sapiens, K562, 96 h) was greater than 100 µM.

Regarding `N#C/C(=C\c1c[nH]c2ccc(Br)cc12)S(=O)(=O)Nc1ccc(F)cc1` [Example 250], the melting point lay in the range of 167 to 169 °C. The molecule further yielded an IC50 in the series with DU145 (prostate cancer) (Homo sapiens, DU-145, 96 h) greater than 100 µM. For the same molecule, in series [1] (Homo sapiens, K562, 96 h), the IC50 lay within 50 to 100 µM.

In turn, `COc1cc(OC)c(OC)cc1/C=C(\C#N)S(=O)(=O)Nc1ccc(F)cc1` [Example 237] showed a melting point of 184 to 186 °C. The molecule also came in with an IC50 with DU145 (prostate cancer) (Homo sapiens, DU-145, 96 h) greater than 100 µM. For the same molecule, the IC50 in series [1] (Homo sapiens, K562, 96 h) was greater than 100 µM.

For `N#C/C(=C\c1ccccc1)S(=O)(=O)Cc1ccc(Cl)cc1Cl` [Example 112], the melting point lay within 219 to 223 °C. Moreover, the IC50 with DU145 (prostate cancer) (Homo sapiens, DU-145, 96 h) fell in the range of 50 to 100 µM. Besides, the IC50 in series [1] (Homo sapiens, K562, 96 h) lay in the range of 50 to 100 µM.

The molecule `N#C/C(=C\c1ccc(O)c([N+](=O)[O-])c1)S(=O)(=O)Cc1ccccc1` [Example 139] came in with a melting point of 159 to 162 °C. Also, in the series with DU145 (prostate cancer) (Homo sapiens, DU-145, 96 h), the half-maximal inhibitory concentration (IC50) was greater than 100 µM. Moreover, the half-maximal inhibitory concentration (IC50) in series [1] (Homo sapiens, K562, 96 h) is 50 to 100 µM.

`N#C/C(=C\c1ccc(O)c([N+](=O)[O-])c1)S(=O)(=O)Cc1ccc(Cl)cc1Cl` [Example 109] gave a melting point of 169 to 171 °C. The IC50 with DU145 (prostate cancer) (Homo sapiens, DU-145, 96 h) is greater than 100 µM. In series [1] (Homo sapiens, K562, 96 h), this molecule displayed an IC50 greater than 100 µM.

For the origin of these results see patent US20090191193A1, “Aryl Vinyl Sulfides, Sulfones, Sulfoxides and Sulfonamides, Derivatives Thereof and Therapeutic Uses Thereof” (TEMPLE UNIVERSITY-OF THE COMMONWEALTH SYSTEM OF HIGHER …, priority 2006, published 2009).
